In ChEMBL document CHEMBL1201862, “PubChem BioAssay data set” (2004):
Where “and” joins values, the source holds several entries; their conditions need not be identical. Equal entries are not always repeated.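 Growth conditions: 96-well plates. Treatment: test compound, 48 hours, 5 concentrations. Analysis: linear interpolation between bracketing concentrations; unreached endpoints set to highest concentration. GI50 = concentration required for 50% inhibition of growth.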 Calls of active or inactive are those of the source. Rule as the data show it: active = GI50 up to about 1.1 µM and inactive = higher.

What was measured:
Experiment in all cases: NCI-60 cell line screen, 48 h
[1] = tested on: SN12C
[2] = tested on: 786-0
[3] = tested on: A549
[4] = tested on: SF-268
[5] = tested on: HOP-18
[6] = tested on: M19-MEL
[7] = tested on: MDA-N
[8] = tested on: M14
[9] = tested on: PC-3
[10] = tested on: SNB-19
[11] = tested on: SW-620
[12] = tested on: OVCAR-3
[13] = tested on: T47D
[14] = tested on: Hs-578T
[15] = tested on: KM-20L2
[16] = tested on: BT-549
[17] = tested on: MDA-MB-231
[18] = tested on: DU-145
[19] = tested on: TK-10
[20] = tested on: KM12
[21] = tested on: XF498
[22] = tested on: EKVX
[23] = tested on: RXF 393
[24] = tested on: SK-MEL-28
[25] = tested on: MDA-MB-435
[26] = tested on: OVCAR-8
[27] = tested on: CAKI-1
[28] = tested on: K562
[29] = tested on: SK-MEL-5
[30] = tested on: DLD-1
[31] = tested on: HOP-62
[32] = tested on: SR
[33] = tested on: DMS-273
[34] = tested on: SNB-78
[35] = tested on: ACHN
[36] = tested on: Malme-3M
[37] = tested on: OVCAR-5
[38] = tested on: NCI-H522
[39] = tested on: COLO 205
[40] = tested on: HCT-116
[41] = tested on: U-251
[42] = tested on: A498
[43] = tested on: OVCAR-4
[44] = tested on: NCI-H23
[45] = tested on: SF-295
[46] = tested on: RPMI-8226
[47] = tested on: NCI-H460
[48] = tested on: SK-OV-3
[49] = tested on: SNB-75
[50] = tested on: SF-539
[51] = tested on: SK-MEL-2
[52] = tested on: UACC-62
[53] = tested on: MOLT-4
[54] = tested on: IGROV-1
[55] = tested on: HT-29
[56] = tested on: LOX IMVI
[57] = tested on: HCT-15
[58] = tested on: HOP-92
[59] = tested on: CCRF-CEM
[60] = tested on: HCC 2998
[61] = tested on: LXFL 529
[62] = tested on: NCI-H226
[63] = tested on: UACC-257
[64] = tested on: HL-60
[65] = tested on: UO-31
[66] = tested on: DMS-114
[67] = tested on: MCF7
[68] = tested on: NCI/ADR-RES

Cc1cc(O)c2c(=O)c3c(O)cc(O)c4c5c(O)cc(O)c6c(=O)c7c(O)cc(C)c8c1c2c(c34)c(c78)c65 [HYPERICIN]
GI50 [1]: 60.8 µM (inactive)
GI50 [2]: > 100 µM (inactive)
GI50 [3]: 52.6 µM (inactive)
GI50 [4]: 54 µM (inactive)
GI50 [5]: 63.1 µM (inactive)
GI50 [6]: 44.2 µM (inactive)
GI50 [7]: > 100 µM (inactive)
GI50 [8]: > 100 µM (inactive)
GI50 [9]: > 100 µM (inactive)
GI50 [10]: > 100 µM (inactive)
GI50 [11]: 51.9 µM (inactive)
GI50 [12]: > 100 µM (inactive) and 67 µM (inactive)
GI50 [13]: > 100 µM (inactive)
GI50 [14]: > 100 µM (inactive)
GI50 [15]: 21.7 µM (inactive)
GI50 [16]: > 100 µM (inactive)
GI50 [17]: 10.1 µM (inactive)
GI50 [18]: > 100 µM (inactive)
GI50 [19]: > 100 µM (inactive)
GI50 [20]: 54.5 µM (inactive)
GI50 [21]: 71.1 µM (inactive)
GI50 [22]: > 100 µM (inactive) and 62.5 µM (inactive)
GI50 [23]: 26.4 µM (inactive)
GI50 [24]: 53.1 µM (inactive)
GI50 [25]: > 100 µM (inactive)
GI50 [26]: 74.3 µM (inactive)
GI50 [27]: > 100 µM (inactive)
GI50 [28]: 61.8 µM (inactive) and 33.3 µM (inactive)
GI50 [29]: 59.8 µM (inactive)
GI50 [30]: 21.3 µM (inactive)
GI50 [31]: 28.3 µM (inactive)
GI50 [32]: 99.8 µM (inactive)
GI50 [33]: 56.4 µM (inactive)
GI50 [34]: 42.5 µM (inactive)
GI50 [35]: > 100 µM (inactive)
GI50 [36]: 61 µM (inactive)

CC(N)Cc1ccc(Cl)cc1 (configuration not stated)
GI50 [37]: 58.5 µM (inactive)
GI50 [1]: > 100 µM (inactive)
GI50 [2]: > 100 µM (inactive)
GI50 [3]: > 100 µM (inactive)
GI50 [4]: > 100 µM (inactive)
GI50 [38]: > 100 µM (inactive)
GI50 [39]: > 100 µM (inactive)
GI50 [40]: 41 µM (inactive)
GI50 [41]: > 100 µM (inactive)
GI50 [42]: > 100 µM (inactive)
GI50 [43]: > 100 µM (inactive)
GI50 [5]: > 100 µM (inactive)
GI50 [44]: 39.5 µM (inactive)
GI50 [45]: 47.9 µM (inactive)
GI50 [46]: > 100 µM (inactive)
GI50 [8]: > 100 µM (inactive)
GI50 [47]: 50 µM (inactive)
GI50 [10]: > 100 µM (inactive)
GI50 [48]: > 100 µM (inactive)
GI50 [11]: > 100 µM (inactive)
GI50 [12]: > 100 µM (inactive)
GI50 [15]: 47.2 µM (inactive)
GI50 [49]: > 100 µM (inactive)
GI50 [19]: > 100 µM (inactive)
GI50 [20]: > 100 µM (inactive)
GI50 [21]: > 100 µM (inactive)
GI50 [50]: > 100 µM (inactive)
GI50 [51]: > 100 µM (inactive)
GI50 [52]: > 100 µM (inactive)
GI50 [22]: > 100 µM (inactive)
GI50 [53]: 68.9 µM (inactive)
GI50 [54]: 42.4 µM (inactive)
GI50 [23]: > 100 µM (inactive)
GI50 [24]: > 100 µM (inactive)
GI50 [26]: > 100 µM (inactive)
GI50 [55]: 50.8 µM (inactive)
GI50 [27]: > 100 µM (inactive)
GI50 [56]: > 100 µM (inactive)
GI50 [28]: 50.6 µM (inactive)
GI50 [29]: 72.1 µM (inactive)
GI50 [30]: > 100 µM (inactive)
GI50 [31]: > 100 µM (inactive)
GI50 [57]: 51.6 µM
GI50 [58]: 50.8 µM (inactive)
GI50 [59]: 61.2 µM (inactive)
GI50 [60]: > 100 µM (inactive)
GI50 [32]: > 100 µM (inactive)
GI50 [33]: > 100 µM (inactive)
GI50 [61]: > 100 µM (inactive)
GI50 [35]: > 100 µM (inactive)
GI50 [62]: > 100 µM (inactive)
GI50 [63]: > 100 µM (inactive)
GI50 [64]: 37.6 µM (inactive)
GI50 [65]: 59.4 µM (inactive)
GI50 [36]: > 100 µM (inactive)

Cc1ccc(C)c(NC(=O)CC2Sc3ccccc3NC2=O)c1 (configuration not stated)
GI50 [2]: 18.3 µM (inactive) and 25.2 µM (inactive)
GI50 [66]: 49.5 µM (inactive) and 30.3 µM (inactive)
GI50 [4]: 14.7 µM (inactive) and 26.2 µM (inactive)
GI50 [39]: > 100 µM (inactive)
GI50 [41]: 15 µM (inactive) and 27 µM (inactive)
GI50 [5]: 25.1 µM (inactive) and 16.7 µM (inactive)
GI50 [67]: > 95.5 µM (inactive) and 62.4 µM (inactive)
GI50 [45]: 27.9 µM (inactive) and 50.1 µM (inactive)
GI50 [46]: > 100 µM (inactive) and 53 µM (inactive)
GI50 [8]: 51.3 µM (inactive)
GI50 [9]: > 89.7 µM (inactive) and 79.3 µM (inactive)
GI50 [10]: 19.8 µM (inactive) and 32.7 µM (inactive)
GI50 [48]: 21.2 µM (inactive) and 22.7 µM (inactive)
GI50 [14]: 22.6 µM (inactive)
GI50 [15]: > 100 µM (inactive) and > 96.8 µM (inactive)
GI50 [49]: 10.7 µM (inactive) and 10.4 µM (inactive)
GI50 [18]: > 100 µM (inactive) and > 74.1 µM (inactive)
GI50 [50]: 33.7 µM (inactive) and 29.4 µM (inactive)
GI50 [51]: 30.1 µM (inactive) and 50.8 µM (inactive)
GI50 [52]: 68.9 µM (inactive) and > 85.5 µM (inactive)
GI50 [22]: 75.7 µM (inactive) and > 70.5 µM (inactive)
GI50 [53]: > 56.2 µM (inactive) and > 77.3 µM (inactive)
GI50 [54]: 20.8 µM (inactive) and 35.7 µM (inactive)
GI50 [26]: 15.5 µM (inactive) and 18.6 µM (inactive)
GI50 [28]: > 56.2 µM (inactive) and 68.5 µM (inactive)
GI50 [68]: > 49 µM (inactive)
GI50 [31]: 20.7 µM (inactive) and 17.6 µM (inactive)
GI50 [57]: 38.7 µM and 61 µM
GI50 [58]: 19.1 µM (inactive) and 11.9 µM (inactive)
GI50 [59]: > 56.2 µM (inactive) and > 86.3 µM (inactive)
GI50 [32]: > 46.5 µM (inactive) and 27.8 µM (inactive)
GI50 [34]: 14.5 µM (inactive) and 23.1 µM (inactive)
GI50 [63]: 34.2 µM (inactive) and > 67 µM (inactive)
GI50 [64]: > 96.4 µM (inactive) and > 56.2 µM (inactive)

CN(C)CCNC(=O)c1cccc2c(=O)c3ccccc3oc12
GI50 [37]: 24.3 µM (inactive)
GI50 [1]: 24.3 µM (inactive)
GI50 [66]: 28.1 µM (inactive)
GI50 [3]: 39 µM (inactive)
GI50 [4]: 45.2 µM (inactive)
GI50 [39]: 13.1 µM (inactive)
GI50 [40]: 13.7 µM (inactive)
GI50 [41]: 44.4 µM (inactive)
GI50 [42]: 21.1 µM (inactive)
GI50 [43]: 34.5 µM (inactive)
GI50 [5]: 48 µM (inactive)
GI50 [67]: 26.7 µM (inactive)
GI50 [44]: 35.3 µM (inactive)
GI50 [45]: 30.3 µM (inactive)
GI50 [46]: 29.2 µM (inactive)
GI50 [6]: 22.9 µM (inactive)
GI50 [47]: 28.2 µM (inactive)
GI50 [10]: 36.9 µM (inactive)
GI50 [48]: 25.1 µM (inactive)
GI50 [11]: 34.4 µM (inactive)
GI50 [12]: 37.8 µM (inactive)
GI50 [15]: 34.9 µM (inactive)
GI50 [49]: 32.4 µM (inactive)
GI50 [20]: 35.4 µM (inactive)
GI50 [21]: 31.3 µM (inactive)
GI50 [50]: 53.3 µM (inactive)
GI50 [51]: 35.9 µM (inactive)
GI50 [52]: 32.2 µM (inactive)
GI50 [22]: > 66.1 µM (inactive)
GI50 [53]: 41.3 µM (inactive)
GI50 [54]: 40.6 µM (inactive)
GI50 [23]: 43.1 µM (inactive)
GI50 [24]: 33.7 µM (inactive)
GI50 [26]: 27.7 µM (inactive)
GI50 [55]: 25.4 µM (inactive)
GI50 [56]: 20.7 µM (inactive)
GI50 [28]: 40.8 µM (inactive)
GI50 [29]: 25.2 µM (inactive)
GI50 [68]: 27.6 µM (inactive)
GI50 [30]: 29.6 µM (inactive)
GI50 [31]: 38.5 µM (inactive)
GI50 [57]: 37.4 µM
GI50 [58]: 20.1 µM (inactive)
GI50 [59]: 35.4 µM (inactive)
GI50 [60]: 60 µM (inactive)
GI50 [33]: 28.8 µM (inactive)
GI50 [34]: 37.1 µM (inactive)
GI50 [62]: 25.2 µM (inactive)
GI50 [63]: 26.9 µM (inactive)
GI50 [64]: 29.2 µM (inactive)
GI50 [65]: 18.1 µM (inactive)
GI50 [36]: 25 µM (inactive)
